Results reported in publication PMC9917830, “New Piperazine Derivatives of 6-Acetyl-7-hydroxy-4-methylcoumarin as 5-HT1A Receptor Agents” (International Journal of Molecular Sciences, 2023).
Like-named read-outs stand apart in the source and are kept apart here.

Columns and labels:
5-HT1A receptor [1] = molecular target: T1, 5-HT1A receptor (Rattus norvegicus, UniProt P19327); test: Competitive 5-HT1A binding assay with [3H]8-OH-DPAT, rat hippocampal membranes; settings: 1 nM [3H]8-OH-DPAT
T1 construct: Brains were rapidly removed and placed on ice; from tissue; host or cells: Sprague–Dawley rat hippocampus membranes
T1 sequence (P19327 1-422): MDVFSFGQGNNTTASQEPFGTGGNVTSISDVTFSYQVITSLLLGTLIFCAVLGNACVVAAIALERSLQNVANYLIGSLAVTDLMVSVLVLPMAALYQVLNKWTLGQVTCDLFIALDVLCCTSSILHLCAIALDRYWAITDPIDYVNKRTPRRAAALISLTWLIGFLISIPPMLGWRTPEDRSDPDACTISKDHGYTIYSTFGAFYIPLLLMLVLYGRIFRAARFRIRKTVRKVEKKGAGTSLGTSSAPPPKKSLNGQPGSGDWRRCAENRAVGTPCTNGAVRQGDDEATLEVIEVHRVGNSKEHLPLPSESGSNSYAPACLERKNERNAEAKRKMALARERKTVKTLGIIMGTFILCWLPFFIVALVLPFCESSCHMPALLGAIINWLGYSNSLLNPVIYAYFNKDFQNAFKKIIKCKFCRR
Procedure: (§1) Sprague–Dawley rats were sacrificed by isoflurane overdose. Brains were rapidly removed and placed on ice. Hippocampi (for 5-HT1A assays) and frontal cortices (for 5-HT2A assays) were dissected on a Petri dish. The tissue from 10 rats was homogenized in 30 vol. homogenization buffer (50 mM Tris-HCl, […], 1 mM EDTA, 1 mM dithiothreitol) with a hand-held Teflon-glass homogenizer. The homogenate was centrifuged at 48,000× g at 4 °C for 15 min. The pellet was suspended and homogenized in homogenization buffer and incubated for 10 min at 36 °C. The centrifugation and suspension steps were repeated twice. The final pellet was homogenized in 5 vol. 50 mM Tris-HCl, pH = 7.4 buffer and stored at −80 °C for not more than 6 months.
(§2) Non-specific binding was determined with 10 μM serotonin in both assays. The final DMSO concentration in the assay was 5%. After incubation, the reaction mixture was deposited with the FilterMate-96 Harvester (Perkin Elmer, Waltham, MA, USA) onto Unifilter® GF/C plates (Perkin Elmer, Waltham, MA, USA) presoaked in 0.4% PEI for 1h. Each well was washed with 2 mL of 50 mM Tris-HCl (pH 7.4) buffer to separate bound ligands from free ones. Plates were left to dry overnight. Then, 35 µL of Microscint-20 scintillation fluid (Perkin Elmer, Waltham, MA, USA) was added to each filter well and left to equilibrate for 2 h. Filter-bound radioactivity was counted in a MicroBeta^2 LumiJet scintillation counter (Perkin Elmer, Waltham, MA, USA). Binding curves were fitted with one-site non-linear regression. Binding affinity (pKi ± SEM and Ki ± 95% confidence intervals) for each compound was calculated from […] values with the Cheng-Prusoff equation from two separate experiments.

5-HT2A receptor = molecular target: T2, 5-HT2A receptor (Rattus norvegicus, UniProt P14842); test: Competitive 5-HT2A binding assay with [3H]ketanserin, rat frontal cortex membranes; settings: 1 nM [3H]ketanserin
T2 construct: Brains were rapidly removed and placed on ice; from tissue; host or cells: Sprague–Dawley rat frontal cortex membranes
T2 sequence (P14842 whole entry): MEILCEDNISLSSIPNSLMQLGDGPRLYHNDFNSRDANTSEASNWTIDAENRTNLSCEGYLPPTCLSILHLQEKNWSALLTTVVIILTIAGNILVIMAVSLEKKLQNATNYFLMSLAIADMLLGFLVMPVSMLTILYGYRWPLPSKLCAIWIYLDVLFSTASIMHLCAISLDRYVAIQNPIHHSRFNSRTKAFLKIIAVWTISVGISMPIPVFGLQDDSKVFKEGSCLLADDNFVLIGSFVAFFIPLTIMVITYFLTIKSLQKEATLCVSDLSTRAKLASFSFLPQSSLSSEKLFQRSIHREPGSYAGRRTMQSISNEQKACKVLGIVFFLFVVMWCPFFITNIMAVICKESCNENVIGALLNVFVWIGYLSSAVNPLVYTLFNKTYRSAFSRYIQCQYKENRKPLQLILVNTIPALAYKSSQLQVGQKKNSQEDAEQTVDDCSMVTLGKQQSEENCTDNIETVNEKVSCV
Procedure: as §1, §2

5-HT1A receptor [2] = molecular target: T1, 5-HT1A receptor; test: 5-HT1A receptor activation in the [35S]GTP-γ-S assay (agonist and antagonist mode); type: biochemical; settings: for Emax / EC50: agonist mode; for Emax: efficacy ± SEM; for EC50: rat hippocampal membranes; for agonist or antagonist properties at the 5-HT1A receptor: result in words; for IC50: read-out: 5-HT1A Receptor Inhibition IC50 (nM, 95% CI)
Procedure: as §1, with “The pellet was suspended and homogenized in homogenization buffer and incubated for 10 min at 36 °C.” left out
Non-specific binding was determined with 100 µM of unlabeled GTPγS. The compounds were tested in both the agonist and antagonist mode. […] The final DMSO concentration in the assay was 5%. The reaction mixture was incubated for 90 min at 30 °C on an orbital shaker set at 250 rpm. The reaction mixture was then deposited under vacuum with the FilterMate Harvester® (Perkin Elmer, Waltham, MA, USA) onto Unifilter® GF/C Plates (Perkin Elmer, Waltham, MA, USA) presoaked with wash buffer (50 mM Tris-HCl, pH = 7.4). The wells were then rapidly washed with 2 mL of wash buffer. The filter plates were dried overnight at room temperature. Once completely dry, 35 µL of MicroScint PS (Perkin Elmer, Waltham, MA, USA) scintillation fluid was added to each well. Radioactivity was counted in a MicroBeta^2 LumiJet scintillation counter (Perkin Elmer, Waltham, MA, USA). […] The curves were fitted with the three-parameter non-linear regression model.

[3] = 95% CI in brackets, read-out: 5-HT1A Affinity Ki (nM, 95% CI)
[4] = ± SEM, two experiments, read-out: 5-HT1A Affinity pKi (nM ± SEM) (converted)
[5] = 95% CI in brackets, read-out: 5-HT2A Affinity Ki (nM, 95% CI)
[6] = 95% CI in brackets, read-out: 5-HT1A Receptor Stimulation EC50 (nM, 95% CI)
[7] = ± SEM, read-out: 5-HT2A Affinity pKi (converted)

Structure (SMILES) | Ki (5-HT1A receptor [1]; [3]) | Ki (5-HT1A receptor [1]; [4]) | Ki (5-HT2A receptor; [5]) | Emax (5-HT1A receptor [2]) | EC50 (5-HT1A receptor [2]; [6]) | agonist or antagonist properties at the 5-HT1A receptor (5-HT1A receptor [2]) | melting point | IC50 (5-HT1A receptor [2]) | Ki (5-HT2A receptor; [7]) | EC50 (5-HT1A receptor [2]; read-out: 5-HT1A Receptor Stimulation pEC50 (nM ± SEM) (converted))
CC(=O)c1cc2c(C)cc(=O)oc2cc1OCCCCN1CCN(c2ccccc2Cl)CC1 [Compound 7, 6-Acetyl-7-{4-[4-(2-chlorophenyl)piperazin-1-yl]butoxy}-4-methylchromen-2-one] | 0.57 nM | 0.55 nM | 2080 nM | 130 ± 1.4% | 49 nM | strongest agonist | 132 to 133 °C |  |  | 
CC(=O)c1cc2c(C)cc(=O)oc2cc1OCCCCN1CCN(c2cnccn2)CC1 [Compound 15, 6-Acetyl-7-{4-[4-(pyrazin-2-yl)piperazin-1-yl]butoxy}-4-methylchromen-2-one] | 25 nM |  | 6600 nM | 170 ± 1.3% | 1300 nM | agonistic profile | 150 to 151 °C |  |  | 
CC(=O)c1cc2c(C)cc(=O)oc2cc1OCCCCN1CCN(c2ccncc2)CC1 [Compound 14] | 1660 nM |  | 3360 nM |  |  |  | 107 to 108 °C | 25000 nM |  | 
COc1cccc(N2CCN(CCCCOc3cc4oc(=O)cc(C)c4cc3C(C)=O)CC2)c1 [Compound 2, 6-Acetyl-7-{4-[4-(3-methoxyphenyl)piperazin-1-yl]butoxy}-4-methylchromen-2-one] | 12.9 nM |  | 1160 nM | 146 ± 1.1% | 181 nM | agonistic activity |  |  | 1170 nM | 
CC(=O)c1cc2c(C)cc(=O)oc2cc1OCCCCN1CCN(c2ccccc2F)CC1 [Compound 6, 6-Acetyl-7-{4-[4-(2-fluorophenyl)piperazin-1-yl]butoxy}-4-methylchromen-2-one] | 1.04 nM | 1.07 nM | 1470 nM | 139 ± 1.1% | 101 nM |  | 112 to 113 °C |  |  | 102 nM
CC(=O)c1cc2c(C)cc(=O)oc2cc1OCCCCN1CCN(c2cccc(Br)c2)CC1 [Compound 4, 6-Acetyl-7-{4-[4-(3-bromophenyl)piperazin-1-yl]butoxy}-4-methylchromen-2-one] | 0.78 nM | 0.759 nM | 1160 nM | 176 ± 1.2% | 113 nM | agonistic profile | 109 to 110 °C |  |  | 
CC(=O)c1cc2c(C)cc(=O)oc2cc1OCCCCN1CCN(c2ccc(Br)cc2)CC1 [Compound 5, 6-Acetyl-7-{4-[4-(4-bromophenyl)piperazin-1-yl]butoxy}-4-methylchromen-2-one] | 1.4 nM |  | 1350 nM |  |  | antagonistic properties | 145 to 146 °C | 63200 nM |  | 
CC(=O)c1cc2c(C)cc(=O)oc2cc1OCCCCN1CCN(c2cc(C)cc(C)c2)CC1 [Compound 10, 6-Acetyl-7-{4-[4-(3,5-dimethylphenyl)piperazin-1-yl]butoxy}-4-methylchromen-2-one] | 22.4 nM |  |  | 139 ± 1.4% | 475 nM |  | 101 to 102 °C |  | 513 nM | 
CC(=O)c1cc2c(C)cc(=O)oc2cc1OCCCCN1CCN(c2ccc([N+](=O)[O-])cc2)CC1 [Compound 12, 6-Acetyl-7-{4-[4-(4-nitrophenyl)piperazin-1-yl]butoxy}-4-methylchromen-2-one] | 1800 nM | 1780 nM | 1500 nM |  |  |  | 138 to 139 °C | 53400 nM | 1550 nM | 
CC(=O)c1cc2c(C)cc(=O)oc2cc1OCCCCN1CCN(c2cc(C)ccc2C)CC1 [Compound 11, 6-Acetyl-7-{4-[4-(2,5-dimethylphenyl)piperazin-1-yl]butoxy}-4-methylchromen-2-one] | 174 nM |  | 3710 nM |  |  |  | 130 to 131 °C | 21900 nM | 3980 nM | 
CC(=O)c1cc2c(C)cc(=O)oc2cc1OCCCCN1CCN(c2cccc(Cl)c2Cl)CC1 [Compound 9, 6-Acetyl-7-{4-[4-(2,3-dichlorophenyl)piperazin-1-yl]butoxy}-4-methylchromen-2-one] | 6.3 nM |  | 1290 nM | 133 ± 1.3% | 149 nM |  | 111 to 112 °C |  | 1230 nM | 
CC(=O)c1cc2c(C)cc(=O)oc2cc1OCCCCN1CCN(c2ccccc2Br)CC1 [Compound 3, 6-Acetyl-7-{4-[4-(2-bromophenyl)piperazin-1-yl]butoxy}-4-methylchromen-2-one] | 1.96 nM |  | 1020 nM |  |  | antagonistic properties | 121 to 122 °C | 5180 nM |  | 
CC(=O)c1cc2c(C)cc(=O)oc2cc1OCCCCN1CCN(c2ccccc2C#N)CC1 [Compound 8, 6-Acetyl-7-{4-[4-(2-cyanophenyl)piperazin-1-yl]butoxy}-4-methylchromen-2-one] | 9.44 nM |  | 705 nM | 124 ± 1.1% | 59 nM |  | 117 to 118 °C |  |  | 
COc1ccccc1N1CCN(CCCCOc2cc3oc(=O)cc(C)c3cc2C(C)=O)CC1 [Compound 1, 6-Acetyl-7-{4-[4-(2-methoxyphenyl)piperazin-1-yl]butoxy}-4-methylchromen-2-one] | 5.75 nM |  | 1420 nM |  |  | antagonistic properties | 126 to 127 °C | 301 nM |  | 
CC(=O)c1cc2c(C)cc(=O)oc2cc1OCCCCN1CCOCC1 [Compound 13, 6-Acetyl-7-[4-(morpholin-4-yl)butoxy]-4-methylchromen-2-one] | 9620 nM |  | 6390 nM |  |  |  | 115 to 116 °C | 93400 nM |  | 
